Where two headings read alike, the source gives them in different places.
Experiments:
Assay in all cases: Pull-down assay with immobilized protein and LSM libraries
RecQ-WH = target: T1, RecQ-WH (Escherichia coli, UniProt P15043); parameters: species or system E. coli; details: 1:1 binding assumed, read-out: Surface mapping KD (apparent)
T1 construct: coding for residues 408– 523 of E. coli RecQ; made in house; host or cells: E. coli BL21(DE3)
Procedure: Pull-down assays with immobilized test proteins and foldameric LSM libraries were carried out. Proteins were equilibrated with LSM probes, and equilibrium bound fractions (FB) were determined from the unbound fractions measured by HPLC-MS methods. Hits were corrected with background binding of the resin. The protocol allowed all binding events to equilibrate irrespective of affinity, specificity, and binding kinetics. This was essential to judge overall druggability and promiscuity. Importantly, the concentration of protein and the total concentration of foldameric LSMs were equimolar, which minimized competition between the probes. This experimental setup approximated independent binding of individual library members. Results were visualized as heat maps of dissociation constants (Fig. 3).
Pull-down assay and data analysis
Pull-down assay. LSM sublibraries were screened separately as previously described.(2) Experiments were performed in the following buffers: (i) 20 mM pH 7.4 HEPES, 150 mM NaCl, 5 mM CaCl2 for CaM; (ii) 50 mM pH 7.4 HEPES, 150 mM NaCl, 1 mM TCEP, 1 mM CaCl2 for S100 proteins; (iii) 20 mM pH 7.4 HEPES, 150 mM NaCl, 1 mM TCEP for Gal-1 and (iv) 20 mM pH 7.4 HEPES, 150 mM NaCl for RecQ-WH. Assays were performed in paper filter spin cups (Thermo Scientific) with sample volumes of 100 µl. Hexahistidine-tagged proteins were immobilized on previously washed Co-NTA resin (TALON, Takara Bio USA, Inc., Mountain View, CA) in 64 µM final concentration. LSM sublibrary was added, in which each of the 64 library members were used at a concentration of 1 µM. Samples were incubated at room temperature for 30 min with shaking at 100 rpm. Then, samples were centrifuged at 1000 rpm for 2 min and washed with 100 µl pull-down buffer to remove unbound compounds.
The control experiments were performed using the same compounds and the resin but without the immobilized protein. In case of competitive assays, competitor peptides were added to LSM sublibrary samples in 200 µM final concentration. In the case of Gal-1, lactose (competitor) was used in a concentration of 10 mM. Experiments were performed at least twice. Mean […]
LC-MS methods and parameters. HPLC/ESI-MS analysis was used to characterize the samples from the pull-down assay. LC-MS analysis was performed with a Thermo Scientific Dionex UltiMate 3000 HPLC system interfaced to an LTQ ion trap mass spectrometer (Thermo Electron Corp., San Jose, CA, USA). Samples were injected onto an Aeris Widepore XB-C18 (250 x 4.6 mm) analytical HPLC column using gradient elution 5-80 % solution B during 25 minutes. For pull-down samples, eluent composition was 0.1% acetic acid in distilled water (Solution A) and 0.1% acetic acid in acetonitrile (solution B). Mass spectra were acquired in full scan mode from 200 to 2000 m/z range. For overlapping peaks, selective reaction monitoring (SRM) was […]
MS data analysis. Thermo Xcalibur 2.2 software was used for peak identification and integration. The majority of the foldameric fragments could be resolved independently via HPLC-MS/MS measurements based on molecular weight, MS fragmentation pattern and retention time. Peaks of some foldamers with β3-hIle or β3-hLeu in position R2 could not be resolved, these were integrated and averaged. In the processing method, each sample component was associated to a chromatographic peak based on previously identified mass (m/z) and retention time (ref (2) and Table S7-10). Using ICIS peak detection algorithm, the general detection and integration criteria were: smoothing points: 5, baseline window: 80, area noise factor: 5, peak noise factor: 10. Using these processing setups, all raw data files were reprocessed together and analyzed. Errors in peak identification during the automatic processing were corrected manually.
Calculation of the discussed parameters
1. Bound fractions (FB.) were calculated from the HPLC-MS intensity loss of the LSM probes compared to the control where no protein was immobilized to the resin: […]

Gal-1 = target: T2, Gal-1 (Homo sapiens, UniProt P09382); format: binding; details: H12 library; 1:1 binding assumed; read-out: Surface mapping KD (apparent)
T2 construct: made in house; host or cells: E. coli BL21(DE3)
Outline: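 His-tagged protein immobilized on Co-NTA resin (64 µM) in 20 mM HEPES pH 7.4, 150 mM NaCl, equilibrated 30 min at room temperature with foldamer LSM sublibraries at equimolar total concentration. Unbound fractions quantified by HPLC-MS versus protein-free resin control; apparent KD assumes 1:1 binding.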

S100B = target: T3, S100B (Homo sapiens, UniProt P04271); format: binding; details: 1:1 binding assumed, read-out: Surface mapping KD (apparent)
T3 construct: made in house; host or cells: Escherichia coli BL21(DE3)
T3 sequence (P04271 1-92): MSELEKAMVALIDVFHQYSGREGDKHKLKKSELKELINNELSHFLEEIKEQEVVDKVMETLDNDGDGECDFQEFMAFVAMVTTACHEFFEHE
Outline: (§1)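 Buffers were HEPES pH 7.4 with 150 mM NaCl, plus 1 mM TCEP and 1 mM CaCl2 (50 mM HEPES) for S100A4 and S100B, 1 mM TCEP for Gal-1, and no additive for RecQ-WH. Immobilized protein at 64 µM was equilibrated 30 min with the LSM sublibrary, and unbound probes were measured by LC-MS.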

CaM = target: T4, CaM (Bos taurus, UniProt P62157); format: binding, bovine; details: 1:2 stoichiometry assumed, read-out: Surface mapping KD (apparent)
T4 construct: made in house; host or cells: E. coli BL21 (DE3)
Outline: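 His-tagged protein immobilized on Co-NTA resin, equilibrated 30 min at room temperature with LSM sublibraries (64 members, […]), equimolar protein to total probe. CaM buffer: 20 mM HEPES pH 7.4, 150 mM NaCl, 5 mM CaCl2. Bound fractions from HPLC-MS loss of unbound probe versus protein-free resin control; Kd derived.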

S100A4 = target: T5, S100A4 (Homo sapiens, UniProt P26447); format: binding; details: 1:1 binding assumed, read-out: Surface mapping KD (apparent)
T5 construct: made in house; host or cells: Escherichia coli BL21(DE3)
Outline: as §1

T5 sequence (P26447 whole entry): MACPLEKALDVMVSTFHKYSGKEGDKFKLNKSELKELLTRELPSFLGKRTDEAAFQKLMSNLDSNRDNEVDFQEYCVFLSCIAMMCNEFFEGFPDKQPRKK
T1 sequence (P15043 408-523): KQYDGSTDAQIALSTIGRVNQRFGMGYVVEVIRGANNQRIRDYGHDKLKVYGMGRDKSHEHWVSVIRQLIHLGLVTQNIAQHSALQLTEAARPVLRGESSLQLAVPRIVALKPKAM
T2 sequence (P09382 whole entry): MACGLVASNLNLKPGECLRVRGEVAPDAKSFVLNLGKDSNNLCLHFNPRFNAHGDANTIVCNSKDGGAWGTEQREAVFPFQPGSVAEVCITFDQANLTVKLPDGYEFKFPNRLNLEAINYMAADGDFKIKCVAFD

SMILES	Kd (RecQ-WH; H12 library) [µM]	Kd (Gal-1) [µM]	Kd (S100B; H12 library) [µM]	Kd (RecQ-WH; H14 library) [µM]	Kd (CaM; H14 library) [µM]	also measured
NCCCC[C@@H](CC(=O)N[C@H]1CCC[C@@H]1C(=O)N[C@H]1CCC[C@@H]1C(N)=O)NC(=O)[C@H]1CCC[C@@H]1NC(=O)[C@H]1CCC[C@@H]1NC(=O)C[C@H](Cc1ccccc1)NC(=O)[C@H]1CCC[C@@H]1NC(=O)[C@H]1CCC[C@@H]1N [H12 FK]	337	246	37	–	–	Kd (CaM; H12 library): 448 µM
N=C(N)NCCC[C@@H](CC(=O)N[C@H]1CCC[C@@H]1C(=O)N[C@H]1CCC[C@@H]1C(N)=O)NC(=O)[C@H]1CCC[C@@H]1NC(=O)[C@H]1CCC[C@@H]1NC(=O)C[C@H](Cc1ccccc1)NC(=O)[C@H]1CCC[C@@H]1NC(=O)[C@H]1CCC[C@@H]1N [H12 FR]	388	141	28	–	–	Kd (CaM; H12 library): 125 µM
CC(C)C[C@@H](CC(=O)N[C@H]1CCC[C@@H]1C(=O)N[C@H]1CCC[C@@H]1C(=O)N[C@@H](CCCCN)CC(=O)N[C@H]1CCC[C@@H]1C(=O)N[C@H]1CCC[C@@H]1C(N)=O)NC(=O)[C@H]1CCC[C@@H]1NC(=O)[C@H]1CCC[C@@H]1N [H12 LK]	434	–	54	–	–	–
CSCC[C@@H](CC(=O)N[C@H]1CCC[C@@H]1C(=O)N[C@H]1CCC[C@@H]1C(=O)N[C@@H](CCCNC(=N)N)CC(=O)N[C@H]1CCC[C@@H]1C(=O)N[C@H]1CCC[C@@H]1C(N)=O)NC(=O)[C@H]1CCC[C@@H]1NC(=O)[C@H]1CCC[C@@H]1N [H12 MR]	435	186	59	–	–	–
NCCCC[C@@H](CC(=O)N[C@H]1CCC[C@@H]1C(=O)N[C@H]1CCC[C@@H]1C(N)=O)NC(=O)[C@H]1CCC[C@@H]1NC(=O)[C@H]1CCC[C@@H]1NC(=O)C[C@H](Cc1c[nH]c2ccccc12)NC(=O)[C@H]1CCC[C@@H]1NC(=O)[C@H]1CCC[C@@H]1N [H12 WK]	431	266	26	–	–	–
N=C(N)NCCC[C@@H](CC(=O)N[C@H]1CCC[C@@H]1C(=O)N[C@H]1CCC[C@@H]1C(N)=O)NC(=O)[C@H]1CCC[C@@H]1NC(=O)[C@H]1CCC[C@@H]1NC(=O)C[C@H](Cc1c[nH]c2ccccc12)NC(=O)[C@H]1CCC[C@@H]1NC(=O)[C@H]1CCC[C@@H]1N [H12 WR]	206	–	15	–	–	Kd (S100A4; H12 library): 326 µM; Kd (CaM; H12 library): 226 µM
NC(=O)[C@H]1CCC[C@@H]1NC(=O)[C@H]1CCC[C@@H]1NC(=O)C[C@H](CO)NC(=O)[C@H]1CCC[C@@H]1NC(=O)[C@H]1CCC[C@@H]1NC(=O)C[C@H](Cc1c[nH]c2ccccc12)NC(=O)[C@H]1CCC[C@@H]1NC(=O)[C@H]1CCC[C@@H]1N [H12 WS]	420	413	54	–	–	–
NCCCC[C@@H](CC(=O)N[C@H]1CCC[C@@H]1C(=O)N[C@H]1CCC[C@@H]1C(N)=O)NC(=O)[C@H]1CCC[C@@H]1NC(=O)[C@H]1CCC[C@@H]1NC(=O)C[C@H](Cc1ccc(O)cc1)NC(=O)[C@H]1CCC[C@@H]1NC(=O)[C@H]1CCC[C@@H]1N [H12 YK]	280	371	86	–	–	Kd (CaM; H12 library): 42 µM
CC[C@H](C)[C@@H](CC(=O)N[C@H]1CCCC[C@@H]1C(N)=O)NC(=O)[C@H]1CCCC[C@@H]1NC(=O)[C@H]1CCCC[C@@H]1NC(=O)C[C@H](CCC(=O)O)NC(=O)[C@H]1CCCC[C@@H]1N [H14 EI]	–	–	–	444	–	–
CC(C)C[C@@H](CC(=O)N[C@H]1CCCC[C@@H]1C(N)=O)NC(=O)[C@H]1CCCC[C@@H]1NC(=O)[C@H]1CCCC[C@@H]1NC(=O)C[C@H](CCC(=O)O)NC(=O)[C@H]1CCCC[C@@H]1N [H14 EL]	–	–	–	444	–	–
NC(=O)[C@H]1CCCC[C@@H]1NC(=O)C[C@H](CC(=O)O)NC(=O)[C@H]1CCCC[C@@H]1NC(=O)[C@H]1CCCC[C@@H]1NC(=O)C[C@H](Cc1ccccc1)NC(=O)[C@H]1CCCC[C@@H]1N [H14 FD]	–	–	–	193	489	–
NC(=O)[C@H]1CCCC[C@@H]1NC(=O)C[C@H](CCC(=O)O)NC(=O)[C@H]1CCCC[C@@H]1NC(=O)[C@H]1CCCC[C@@H]1NC(=O)C[C@H](Cc1ccccc1)NC(=O)[C@H]1CCCC[C@@H]1N [H14 FE]	–	–	–	328	475	–
NCCCC[C@@H](CC(=O)N[C@H]1CCCC[C@@H]1C(=O)N[C@H]1CCCC[C@@H]1C(=O)N[C@H](CC(=O)N[C@H]1CCCC[C@@H]1C(N)=O)Cc1ccc(O)cc1)NC(=O)[C@H]1CCCC[C@@H]1N [H14 KY]	–	–	–	407	36	Kd (S100B; H14 library): 63 µM
N=C(N)NCCC[C@@H](CC(=O)N[C@H]1CCCC[C@@H]1C(=O)N[C@H]1CCCC[C@@H]1C(=O)N[C@@H](CC(=O)O)CC(=O)N[C@H]1CCCC[C@@H]1C(N)=O)NC(=O)[C@H]1CCCC[C@@H]1N [H14 RD]	–	–	–	427	–	–
CC[C@H](C)[C@@H](CC(=O)N[C@H]1CCCC[C@@H]1C(N)=O)NC(=O)[C@H]1CCCC[C@@H]1NC(=O)[C@H]1CCCC[C@@H]1NC(=O)C[C@H](CCCNC(=N)N)NC(=O)[C@H]1CCCC[C@@H]1N [H14 RI]	–	–	–	237	10	Kd (S100B; H14 library): 31 µM; Kd (S100A4; H14 library): 51 µM
CC(C)C[C@@H](CC(=O)N[C@H]1CCCC[C@@H]1C(N)=O)NC(=O)[C@H]1CCCC[C@@H]1NC(=O)[C@H]1CCCC[C@@H]1NC(=O)C[C@H](CCCNC(=N)N)NC(=O)[C@H]1CCCC[C@@H]1N [H14 RL]	–	–	–	237	10	Kd (S100B; H14 library): 31 µM; Kd (S100A4; H14 library): 51 µM
N=C(N)NCCC[C@@H](CC(=O)N[C@H]1CCCC[C@@H]1C(=O)N[C@H]1CCCC[C@@H]1C(=O)N[C@@H](CC(N)=O)CC(=O)N[C@H]1CCCC[C@@H]1C(N)=O)NC(=O)[C@H]1CCCC[C@@H]1N [H14 RN]	–	–	–	439	185	Kd (S100B; H14 library): 212 µM
N=C(N)NCCC[C@@H](CC(=O)N[C@H]1CCCC[C@@H]1C(=O)N[C@H]1CCCC[C@@H]1C(=O)N[C@@H](CO)CC(=O)N[C@H]1CCCC[C@@H]1C(N)=O)NC(=O)[C@H]1CCCC[C@@H]1N [H14 RS]	–	–	–	403	155	Kd (S100B; H14 library): 413 µM
NC(=O)[C@H]1CCCC[C@@H]1NC(=O)C[C@H](CCC(=O)O)NC(=O)[C@H]1CCCC[C@@H]1NC(=O)[C@H]1CCCC[C@@H]1NC(=O)C[C@H](Cc1c[nH]c2ccccc12)NC(=O)[C@H]1CCCC[C@@H]1N [H14 WE]	–	–	–	137	191	Kd (S100A4; H14 library): 428 µM

Source: PMC8162404, “Proteomimetic surface fragments distinguish targets by function” (Chemical Science, 2020)
